Experimental data reported in patent US7585861B2, “HIV inhibiting 1,2,4-triazines” (Janssen Pharmaceutica, N.V., priority 2003, dated 2009).

Columns and labels:
HIV [1] = assay: Test A: inhibition of the HIV-induced cytopathic effect in MT-4 cells (MTT); format: cell-based
Description: (§1) A rapid, sensitive and automated assay procedure was used for the in vitro evaluation of anti-HIV agents. An […] T4-cell line, MT-4, which was previously shown (Koyanagi et al., Int. J. Cancer, 36, 445-451, 1985) to be highly susceptible to and permissive for HIV infection, served as the target cell line. Inhibition of the HIV-induced cytopathic effect was used as the end point. The viability of both HIV- and mock-infected cells was assessed spectrophotometrically via the in situ reduction of 3-(4,5-dimethylthiazol-2-yl)-2,5-diphenyltetrazolium bromide (MTT). […] The percent protection achieved by the compound in HTV-infected cells was calculated by the following formula:
(§2) [formula] whereby (ODT)HIV is the optical density measured with a given concentration of the test compound in HIV-infected cells; (ODC)HIV is the optical density measured for the control unteated HIV-infected cells; (ODC)MOCK is the optical density measured for the control untreated mock-infected cells; all optical density values were determined at 540 nm. […] The ratio of CC50 to IC50 was defined as the selectivity index (SI).

[2] = Test A: cytotoxicity in mock-infected MT-4 cells (MTT); format: cell-based; conditions: human
Description: as §1, §2

HIV [3] = assay: Test B: HIV infection measured fluorometrically in MT-4 cells engineered with GFP (HIV-specific promotor); format: cell-based; conditions: Human immunodeficiency virus 1, MT4
Description: (§3) An […] T4-cell line, MT-4, which was previously shown (Koyanagi et al., Int. J. Cancer, 36, 445-451, 1985) to be highly susceptible to and permissive for HIV infection, served as the target cell line. In these cells, engineered with GFP (and an HIV-specific promotor), ongoing HIV-infection was measured fluorometrically. Cytotoxicity is measured in the same cells, but engineered with GFP under a constitutional promoter. The infection (or inhibition thereof) of HIV infected cells and the flourescence of mock-infected cells is assessed by the fluorescent GFP signal generated by the two above mentioned cell lines.

[4] = Test B: cytotoxicity in mock-infected MT-4 cells engineered with GFP under a constitutional promoter; format: cell-based; conditions: human
Description: as §3

[5] = Human immunodeficiency virus 1, MT4, read-out: pIC50 (converted)

| Compound | IC50 (HIV [1]; [5]) | CC50 ([2]; mock-infected MT-4 cells) | IC50 (HIV [3]) | CC50 [4] | melting point | other results |
| --- | --- | --- | --- | --- | --- | --- |
| Cc1cc(C)c(Nc2nc(Nc3ccc(C#N)cc3)nnc2Cl)c(C)c1 [Compound 44] | – | – | – | – | – | IC50 (HIV [1]; Human immunodeficiency virus 1, MT4, read-out: pIC50 (M) (converted)): 2.51e-09 M; CC50 [2]: > 25100 nM |
| N#CCCc1cc(Cl)c(Nc2nnc(Cl)c(Nc3ccc(C#N)cc3)n2)c(Cl)c1 [Compound 74] | – | – | 5.01 nM | > 25100 nM | 256 to 257 °C | – |
| N#CCCc1cc(Cl)c(Nc2nnc(Cl)c(Nc3ccc(C#N)cc3)n2)c(Br)c1 [Compound 75] | – | – | 3.16 nM | > 25100 nM | 252 to 254 °C | – |

Further lines, with some results ahead:

| IC50 (HIV [1]; [5]) | Compound | CC50 ([2]; mock-infected MT-4 cells) | IC50 (HIV [3]) | CC50 [4] | melting point | other results |
| --- | --- | --- | --- | --- | --- | --- |
| 2e-09 M | Cc1cc(C#N)cc(C)c1Nc1cnnc(Nc2ccc(C#N)cc2)n1 [Compound 1] | > 100000 nM | – | – | – | – |
| 5.01e-09 M | Cc1cc(C#N)cc(C)c1Oc1nc(Nc2ccc(C#N)cc2)nnc1Cl [Compound 3] | > 100000 nM | – | – | – | – |
| 5.01e-10 M | COc1cc(OC)c(Nc2cnnc(Nc3ccc(C#N)cc3)n2)c(OC)c1 [Compound 36] | > 100000 nM | – | – | – | – |
